The values below come from article PMC10077203, “Structure modification, antialgal, antiplasmodial, and toxic evaluations of a series of new marine-derived 14-membered resorcylic acid lactone derivatives” (Marine Life Science & Technology, 2021).

For one data set, the system named is C. vulgaris. The data set is described as follows: Diatom growth inhibition assay (antialgal activity). As to conditions: Chlorella vulgaris; 48 h, chlorophyll a of attached microalgae; read-out: EC50 C. vulgaris. It counts as cell-based, Chlorella vulgaris. How it is done: (§1) The antialgal activity against the microalgae P. tricornutum Bohlin, C. vulgaris, C. socialis, N. laevissima, and N. exigua was evaluated by the method of Ortlepp et al. ([2008]). Briefly, the microalgae were grown in sterilized BG11 medium under light intensity of 2500 lx and 12 h: 12 h light: dark cycle at temperature of 20 ℃. The microalgae were grown to reach the logarithmic phase (approximately 5 × 10^5 cells/ml), which were used for microalgae growth inhibition assay. The compounds 1–71 were first dissolved in a small amount of DMSO and then diluted with 0.22 μm of filtered seawater (FSW) to achieve a range of concentrations from 0.625 to 50 μg/ml. Ten microliters of the compound solution was added to multiwell Petri dishes containing a 1-mL suspension of the microalgae (approximately 12 × 10^4 cells/ml). FSW with DMSO was used as a negative control, and solutions of SeaNine 211 in seawater were used as positive controls. After the plates were incubated for 48 h (16 ± 1 ℃) under continuous light, the FSW with non-attached microalgae was removed. The amount of chlorophyll a in attached microalgae was determined with a spectrophotometer (Beckman, model DU650, USA). Then the EC50 (inhibits 50% of settlement of cyprids in comparison with the control) was calculated using the Probit software program.

The subject of another data set is zebrafish embryos. Briefly: Zebrafish embryo toxicity test. The data set is classed as in vivo. Conditions: for death of zebrafish embryos: 50 μmol/L, after 24 h; for survival of zebrafish embryos: 100 μmol/L, 52 h. How it is done: Toxicity assays were carried out using the method of Wang et al. ([2011]). Briefly, the normal embryos were selected and transferred into a 24-well plate. The embryos at 1 h postfertilization (hpf) were exposed by immersion in E3 embryo medium containing the derivative in a 1% (v/v) DMSO final solvent concentration in a 24-well plate. The developmental phenotypes of the experimental status of the embryos were observed every 24 h for 72 h and were photographed with a charge-coupled device (CCD) camera.

The subject of another data set is C. socialis. The data set is described as follows: Diatom growth inhibition assay (antialgal activity). As to conditions: Chaetoceros socialis, 48 h, chlorophyll a of attached microalgae, read-out: EC50 C. socialis. It counts as cell-based, Chaetoceros socialis. Here is the method: as §1
Another data set concerns N. laevissima. The data set is described as above. It counts as cell-based, Navicula laevissima. Conditions: Sellaphora laevissima, 48 h, chlorophyll a of attached microalgae, read-out: EC50 N. laevissima. Here is the method:
as §1

For the next data set, the system named is P. tricornutum Bohlin. The description is as above. It counts as cell-based, Phaeodactylum tricornutum Bohlin. As to conditions: Phaeodactylum tricornutum, 48 h, chlorophyll a of attached microalgae, read-out: EC50 P. tricornutum. How it is done:
as §1

The subject of the next data set is N. exigua. Described as above. Conditions: 48 h, chlorophyll a of attached microalgae, read-out: EC50 N. exigua. It counts as cell-based, Navicula exigua. How it is done: as §1
The subject of data set [1] is P. tricornutum Bohlin, C. vulgaris, C. socialis, N. laevissima, and N. exigua. The data set is described as follows: Diatom growth inhibition assay, whole panel. The data set is classed as cell-based. As to conditions: Chlorella vulgaris; selective and moderate activities; read-out: EC50 antialgal, range over compounds and algae. How it is done: as §1
A further data set has as its system Staphylococcus aureus. The data set is described as follows: Antimicrobial assay (serial dilution, MIC). It counts as cell-based. Conditions: 37 °C, 24 h, read-out: minimum inhibitory concentration (MIC) S. aureus. How it is done:
The antimicrobial activities were carried out by a serial dilution technique using 96-well microtiter plates (Pierce et al. [2008]). The derivatives were dissolved in DMSO to obtain a stock solution. Microbial species were cultured overnight at 37 °C in LB broth and diluted to 10^6 cfu/ml when used. LB broth was used as a blank control, and DMSO was used as a negative control, while ciprofloxacin was used as a positive control. The plates were incubated at 37 °C for 24 h.

Data set [2] is described as follows: In vitro cytotoxicity (CC50). Conditions: human, HUVEC cells. The data set is classed as cell-based. The source says: Toxicity is a major concern of drug discovery and development, and the selectivity index (SI) is used as the evaluation parameter of drug potential of the test samples by comparing the toxicity on a human cell line (CC50) and the selective inhibitory effect on P. falciparum (IC50) calculated here as CC50/IC50. We decided to evaluate in vitro cytotoxicity of the active derivatives 38, 39, 50, 52, 65, 67, 70, and 71 by determining their 50% cytotoxic concentrations. The results are presented in Table 3, presenting only those CC50 values > 100 μmol/L, reaching selectivity indexes > 10. The cytotoxic concentration at 150 μmol/L was not be determined because of a lack of solubility of the tested molecule in the culture medium. Moreover, the toxicity of these derivatives was also evaluated against two other cell lines: hepatocellular liver carcinoma cell line (Hep G2) and cervical carcinoma (HeLa), finding CC50 values > 100 μmol/L.

In data set [3] the test system is chloroquine sensitive HB3 strain of P. falciparum. Briefly: In vitro antiplasmodial assay (Pico-Green growth inhibition). It counts as cell-based, Plasmodium falciparum. Conditions: for P. falciparum SI, Selectivity Index (CC50/IC50): CC50 HUVEC / IC50 P. falciparum; for IC50: Plasmodium falciparum, Erythrocyte, HB3 strain in human erythrocytes, read-out: P. falciparum IC50. How it is done:
In vitro antiplasmodial activity was performed by culturing human erythrocytes and infecting them with P. falciparum, as reported by Trager and Jensen ([1976]). Briefly, the chloroquine sensitive HB3 strain of P. falciparum-infected O + erythrocytes was cultured in RPMI 1640 medium supplemented with 10% human serum (from O + blood) at a hematocrit of 2% erythrocytes at 37 °C with a gas mixture containing 90% N2, 5% CO2, and 5% O2. Parasites were synchronized with 5% D-sorbitol (Lambros and Vanderberg [1979]). P. falciparum growth inhibition bioassays were performed with the procedure as described by Corbett et al. ([2004]), which used Pico-Green, a double stranded-DNA fluorescent dye to test the effect of compounds.

Data set [4] deals with larval settlement of the barnacle Balanus Amphitrite. Further details: method as in Shao et al. [2011]. Conditions: ref Shao et al. [2011]; cited from earlier work.

In brackets after ≈: the same amount, converted by molar mass.

What is called EC50 is the concentration at which the effect is half-maximal. As to `COc1cc2c(c(OCc3ccc4ccccc4c3)c1)C(=O)OC(C)CC=CC(O)C(O)C(O)CC=C2` (stereo not drawn) [Compound 14], the EC50 was greater than 10 µM with C. vulgaris; 17.2 µM in the data set with C. socialis; 20.4 µM in the data set on N. laevissima; greater than 10 µM in the data set on P. tricornutum Bohlin; 18.5 µM with N. exigua; 11 to 32.5 µM in data set [1]. Further, the “death of zebrafish embryos” value with zebrafish embryos was “all embryos died”.
Take `COc1cc2c(c(OCc3ccc(C(C)(C)C)cc3)c1)C(=O)OC(C)CC=CC(O)C(O)C(O)CC=C2` (stereo not drawn) [Compound 26]: the half-maximal effective concentration (EC50) in the data set on C. vulgaris is greater than 10 µM; in the data set on C. socialis, 18.4 µM; with N. laevissima it was greater than 10 µM; with P. tricornutum Bohlin it was 25.7 µM; with N. exigua it was greater than 10 µM; in data set [1] it was 11 to 32.5 µM. In the data set on zebrafish embryos, the “death of zebrafish embryos” value is on record as “all embryos died”. Further, the MIC in the data set with Staphylococcus aureus amounted to 25 µM (≈ 12.8 µg/mL).
As a reminder, the CC50 is the concentration that lowers cell viability or growth by half. Lower therefore signals harm at low concentration. A word on the IC50: it is the concentration needed to halve the response being measured. `COc1cc2c(c(OCc3ccc(-c4ccccc4C#N)cc3)c1)C(=O)OC(C)CC=CC1OC(C)(C)OC1C(O)CC=C2` (stereo not drawn) [Compound 38]: the “survival of zebrafish embryos” value in the data set on zebrafish embryos is reported as “All embryos survived”. In data set [2], this compound returned a CC50 greater than 100 µM. Further, in data set [3], the “P. falciparum SI, Selectivity Index (CC50/IC50)” value is listed as greater than 12 and the IC50 was 8.06 µM.
`COC(=O)c1ccccc1-c1ccc(COc2cc(OC)cc3c2C(=O)OC(C)CC=CC2OC(C)(C)OC2C(O)CC=C3)cc1` (stereo not drawn) [Compound 39]: the “survival of zebrafish embryos” value in the data set with zebrafish embryos is recorded as “All embryos survived”. The CC50 in [2] is greater than 100 µM. In addition, in data set [3], the “P. falciparum SI, Selectivity Index (CC50/IC50)” value was greater than 14 and the IC50 is 6.69 µM.
For the compound `[2H]C([2H])([2H])C1(C([2H])([2H])[2H])OC2C=CCC(C)OC(=O)c3c(cc(OC)cc3OCc3ccc(-c4ccccc4C(=O)OC)cc3)C=CCC(O)C2O1` (stereo not drawn) [Compound 67], the CC50 in data set [2] was greater than 100 µM. In addition, in [3], the “P. falciparum SI, Selectivity Index (CC50/IC50)” value is recorded as greater than 13 and the IC50 worked out at 7.25 µM.
On to `CCC(=O)Oc1cc(OC)c(Cl)c2c1C(=O)OC(C)CC=CC(OC(=O)CC)C(OC(=O)CC)C(OC(=O)CC)CC=C2` (stereo not drawn) [Compound 70], for which, in [2], the CC50 was greater than 100 µM. In data set [3], the “P. falciparum SI, Selectivity Index (CC50/IC50)” value was greater than 14 and the IC50 came to 6.91 µM.
The like results for `COc1cc(OC(=O)C(C)(C)C)c2c(c1Cl)C=CCC(OC(=O)C(C)(C)C)C(O)C(OC(=O)C(C)(C)C)C=CCC(C)OC2=O` (stereo not drawn) [Compound 71] were, in that order, greater than 100 µM, greater than 28 and 3.54 µM.
Turning to `COc1cc(O)c2c(c1)/C=C/C[C@H](O)[C@@H]1OC(C)(C)O[C@H]1C=CC[C@H](C)OC2=O` [cochliomycin A], in [4], the “concentration of significant antifouling activity against larval settlement” value was 1.2 µg/mL.
